Laboratory results published in US8507488B2, “Fused nitrogen containing heterocycles and compositions thereof as kinase inhibitors” (IRM LLC, priority 2008, dated 2013).
Like-named read-outs stand apart in the source and are kept apart here.

Assays:
[1] = target: T1, full length rTrkA and mNGF (Rattus norvegicus, UniProt P35739); assay: Inhibition of proliferation of Ba/F3 cells co-expressing full length rTrkA and mNGF (BaF3/TrkA-NFG); type: cell-based; settings: for IC50 in BaF3/TrkA-NFG CTG cellular assay: BaF3/TrkA-NFG cells; for BaF3 TRKA-NGF CTG IC 50: BaF3 TRKA-NGF cells, CTG readout
T1 construct: co-expressing full length rTrkA and mNGF; expressed in transfected cells; host or cells: Ba/F3 cells

[2] = test system: parental BaF3 cells; assay: Proliferation of parental (untransformed) Ba/F3 cells maintained with IL3; type: cell-based, murine; settings: Mus musculus
In short: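 Untransformed murine Ba/F3 cells kept in RPMI/10% FCS with 5 ng/ml murine IL3, plated at 2000 cells/well and exposed to 12 concentrations of compound for 48 h at 37 °C. Viability read by Bright-Glo luciferase luminescence; IC50 from linear regression of % inhibition.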

[3] = target: T2, Tel-TrkB (Homo sapiens, UniProt Q16620); assay: Inhibition of proliferation of Ba/F3 cells expressing Tel-TrkB (BaF3/Tel-TrkB); type: cell-based
T2 construct: dimerization domain of Tel (ETV6) transcription factor (fusion partner, human ETV6 P41212); expressed in transfected cells; host or cells: luciferase expressing Ba/F3 murine hematopoietic progenitor cells; the other entry of the earlier key: ETV6 (P41212, Transcription factor ETV6)
In short: (§1)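 Luciferase-expressing murine Ba/F3 cells transformed with human Tel-TrkA or Tel-TrkB, plated at 2000 cells/well in IL3-free RPMI/10% FBS. Exposed to 12 concentrations of 3-fold serially diluted compound for 48 hours at 37° C, 5% CO2. Bright Glo luminescence read-out, with IC50 from linear regression of percent inhibition.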

[4] = target: T3, Tel-TrkA (Homo sapiens, UniProt P04629); assay: Inhibition of proliferation of Ba/F3 cells expressing Tel-TrkA (BaF3/Tel-TrkA, luciferase/Bright Glo readout); type: cell-based; settings: read-out: IC50 in BaF3/Tel-TrkA CTG cellular assay
T3 construct: dimerization domain of Tel (ETV6) transcription factor (fusion partner, human ETV6 P41212); expressed in transfected cells; host or cells: luciferase expressing Ba/F3 murine hematopoietic progenitor cells; the other entry of the earlier key: ETV6 (P41212, Transcription factor ETV6)

[5] = target: T3, Tel-TrkA; assay: as above; type: cell-based; settings: read-out: Ba/F3 Tel-TrkA IC 50
In short: as §1

[6] = target: T4, Tel-TrkC (Homo sapiens, UniProt Q16288); assay: Inhibition of proliferation of Ba/F3 cells expressing Tel-TrkC (BaF3/Tel-TrkC); type: cell-based; settings: read-out: Ba/F3 Tel-TrkC IC 50
T4 construct: The cells also express luciferase as the viability read-out; it is not fused to the kinase; P41212 (Transcription factor ETV6)
Protocol: Test compounds were dissolved in DMSO (10 mM) and transferred into 1.4 mL flat bottom or V-shaped Matrix tubes carrying a unique 2D matrix chip by individual compound hubs. The numbers of these chips were distinctively linked to the individual compound identification numbers. The stock solutions were stored at −20° C. if not used immediately. For the test procedure the vials were defrosted and identified by a scanner whereby a working sheet is generated that guides the subsequent working steps.
Compound dilutions were made in 384 well plates. This format enabled the assay of maximally 28 individual test compounds at 12 concentrations (single points) including 2 reference compounds. The dilution protocol included the production of pre-dilution plates, master plates and assay plates: • Compound plates: 30 μL of individual compound (10 mM) DMSO solution including standard compound were transferred into columns 1 and 13 of a 384 well plate. 20 μL of DMSO were added to the rest of the wells and the compounds were serially diluted (1:3) by transferring 10 μL from a well in column 1 or 13 to the next well in column 2 or 14 respectively and successively with the help of a Minitrack robot. • Assay plates: Identical assay plates were then prepared by adding […] each of compound dilutions of the compound plates into 384-well “assay plates”. In the following the compounds were mixed with 50 μL of assays components (cells or enzyme) and tested for their inhibitory activity.
Compounds of Formula (I) were tested for their antiproliferative effect on Ba/F3 cells expressing either Tel-TrkA, Tel-TrkB or Tel-TrkC and an additional panel of 34 selected diverse kinases activated by fusion to the dimerizing partners Bcr or Tel (Abl, A1K, BMX, EphA3, EphB2, FGFR2, FGFR3, FGFR4, FGR, FLT1, FLT3, FLT4, FMS, IGF1R, InsR, JAK1, JAK2, JAK3, KDR, Kit, Lck, Lyn, MER, MET, PDGFRb, RET, RON, Ros-1, Src, Aurora, TIE2, TYK2, Tie1, ZAP70). The antiproliferative effect of these compounds on the different cell lines and on the non transformed cells were tested at 12 different concentrations of 3-fold serially diluted compounds in 384 well plates as described above (in media lacking IL3). The IC50 values of the compounds the different cell lines were determined from dose response curves.
The cell line used is the luciferase expressing Ba/F3 murine hematopoietic progenitor cell line transformed with human Tel-TrkA, Tel-TrkB or Tel-TrkC cDNAs (Ba/F3 EN A/B/C). These cells maintained in RPMI/10% fetal bovine serum (RPMI/FCS) supplemented with penicillin 50 mg/mL, streptomycin 50 mg/mL and L-glutamine […]. Untransformed Ba/F3 cells were similarly maintained with the addition 5 ng/ml of murine recombinant IL3. 50 μl of a Ba/F3 or Ba/F3 EN A/B/C cell suspension were plated in Greiner 384 well microplates (white)) at a density of 2000 cells per well. 50 nl of serially diluted test compound (10-0.0001 mM in DMSO solution) is added to each well. The cells were incubated for 48 hours at 37° C., 5% CO2. 25 μl of Bright Glo® (Promega) luciferase substrate is added to each well. The emited luminiscence is quantified using the ACQUEST™ luminescence system (Molecular Devices). IC50 values were calculated by linear regression analysis of the percentage inhibition of each compound at 12 concentrations.

[7] = test system: KM12 luc; assay: KM12 luc cell proliferation assay (Table 8); type: cell-based; settings: KM12 luc cells; read-out: KM12 luc IC 50
[8] = BaF3, parental BaF3 cells, read-out: IC50 in BaF3 CTG cellular assay
[9] = BaF3/Tel-TrkB cells, read-out: IC50 in BaF3/Tel-TrkB CTG cellular assay
[10] = BaF3, parental Ba/F3 cells, read-out: Ba/F3 IC 50
[11] = Ba/F3 Tel-TrkB cells, read-out: Ba/F3 Tel-TrkB IC 50

T1 sequence (P35739 33-799): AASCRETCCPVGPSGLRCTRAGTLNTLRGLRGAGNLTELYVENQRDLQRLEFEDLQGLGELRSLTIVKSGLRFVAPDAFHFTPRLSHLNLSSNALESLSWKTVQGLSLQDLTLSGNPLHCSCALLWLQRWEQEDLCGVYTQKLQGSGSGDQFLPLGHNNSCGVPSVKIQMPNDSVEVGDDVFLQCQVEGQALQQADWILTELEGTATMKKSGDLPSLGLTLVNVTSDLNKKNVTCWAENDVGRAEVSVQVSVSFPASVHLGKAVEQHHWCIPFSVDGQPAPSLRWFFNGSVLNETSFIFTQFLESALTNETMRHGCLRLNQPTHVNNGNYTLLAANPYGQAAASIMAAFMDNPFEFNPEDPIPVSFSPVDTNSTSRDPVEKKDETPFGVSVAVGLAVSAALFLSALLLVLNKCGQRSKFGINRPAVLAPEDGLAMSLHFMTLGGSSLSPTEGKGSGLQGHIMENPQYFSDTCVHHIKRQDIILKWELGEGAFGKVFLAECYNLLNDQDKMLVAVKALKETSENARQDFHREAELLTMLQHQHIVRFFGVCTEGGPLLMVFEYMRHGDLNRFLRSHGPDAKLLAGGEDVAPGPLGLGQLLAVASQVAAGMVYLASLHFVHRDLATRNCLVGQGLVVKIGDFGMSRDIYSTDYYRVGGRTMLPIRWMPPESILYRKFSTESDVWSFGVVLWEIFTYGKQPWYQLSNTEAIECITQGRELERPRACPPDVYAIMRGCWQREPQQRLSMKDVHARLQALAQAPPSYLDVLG
T1 sequence (P01139 122-241 partner): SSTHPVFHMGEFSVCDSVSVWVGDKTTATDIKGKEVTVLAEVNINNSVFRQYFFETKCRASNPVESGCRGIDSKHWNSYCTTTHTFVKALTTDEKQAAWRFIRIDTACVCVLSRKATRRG
T3 sequence (P04629 510-796 limits assumed): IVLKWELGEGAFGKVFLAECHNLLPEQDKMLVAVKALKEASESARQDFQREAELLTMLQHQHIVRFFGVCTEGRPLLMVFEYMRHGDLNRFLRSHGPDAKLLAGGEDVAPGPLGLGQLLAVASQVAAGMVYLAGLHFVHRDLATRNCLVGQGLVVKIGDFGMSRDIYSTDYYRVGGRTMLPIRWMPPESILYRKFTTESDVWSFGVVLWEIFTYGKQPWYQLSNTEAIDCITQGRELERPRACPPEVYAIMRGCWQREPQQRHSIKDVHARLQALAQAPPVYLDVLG
T4 sequence (Q16288 whole entry, the tested form may be a part): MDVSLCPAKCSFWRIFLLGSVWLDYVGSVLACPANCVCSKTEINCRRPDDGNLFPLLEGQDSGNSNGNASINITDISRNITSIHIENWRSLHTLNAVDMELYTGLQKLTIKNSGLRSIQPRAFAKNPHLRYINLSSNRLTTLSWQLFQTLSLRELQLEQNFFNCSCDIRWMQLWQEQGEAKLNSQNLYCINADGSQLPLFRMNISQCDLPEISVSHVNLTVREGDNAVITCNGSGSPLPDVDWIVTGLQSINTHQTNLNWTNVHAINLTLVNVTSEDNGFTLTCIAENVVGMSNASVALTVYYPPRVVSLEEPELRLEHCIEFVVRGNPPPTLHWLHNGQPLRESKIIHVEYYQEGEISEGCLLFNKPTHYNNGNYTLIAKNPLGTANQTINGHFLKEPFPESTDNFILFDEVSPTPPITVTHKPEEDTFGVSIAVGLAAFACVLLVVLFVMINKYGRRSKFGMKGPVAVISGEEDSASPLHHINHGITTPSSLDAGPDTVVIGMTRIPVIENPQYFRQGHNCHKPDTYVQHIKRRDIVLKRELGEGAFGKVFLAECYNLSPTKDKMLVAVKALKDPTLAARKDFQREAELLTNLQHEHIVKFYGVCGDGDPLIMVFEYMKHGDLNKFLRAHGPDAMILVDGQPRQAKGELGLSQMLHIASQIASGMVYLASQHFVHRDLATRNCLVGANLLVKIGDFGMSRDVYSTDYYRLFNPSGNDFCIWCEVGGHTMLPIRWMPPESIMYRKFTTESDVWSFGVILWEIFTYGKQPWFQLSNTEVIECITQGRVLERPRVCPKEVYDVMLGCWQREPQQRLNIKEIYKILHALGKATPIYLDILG
T2 sequence (Q16620 538-822 limits assumed): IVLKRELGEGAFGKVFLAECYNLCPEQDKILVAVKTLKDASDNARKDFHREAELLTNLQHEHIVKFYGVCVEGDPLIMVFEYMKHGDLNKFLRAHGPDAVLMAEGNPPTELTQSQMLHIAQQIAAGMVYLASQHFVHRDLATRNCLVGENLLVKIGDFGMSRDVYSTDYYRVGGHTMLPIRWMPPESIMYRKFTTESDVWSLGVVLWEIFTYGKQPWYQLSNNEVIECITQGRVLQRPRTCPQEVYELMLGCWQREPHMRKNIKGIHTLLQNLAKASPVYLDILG

SMILES | IC50 in BaF3/TrkA-NFG CTG cellular assay [1] | IC50 [3, 9] | IC50 [4] | BaF3 TRKA-NGF CTG IC 50 [1] | IC50 [5] | IC50 [6] | IC50 [3, 11] | IC50 [2, 8] | IC50 [2, 10] | IC50 [7]
OC1CCN(c2cc(-c3cccc(-c4cnc5ccc(N6CCC[C@@H]6c6cccc(F)c6)nn45)n3)ccn2)CC1 [Compound 16-4, (R)-1-(6-(6-(2-(3-fluorophenyl)pyrrolidin-1-yl)imidazo[1,2-b]pyridazin-3-yl)-2,4′-bipyridin-2′-yl)piperidin-4-ol] | 13 nM | 12 nM | 5.2 nM | – | – | – | – | 4410 nM | – | –
N#Cc1cccc(-c2cnc3ccc(N4CCC(=O)N4c4cccc(F)c4)nn23)c1 [Table 3-Compound 34] | – | – | – | 500 nM | 1200 nM | 130 nM | 400 nM | – | > 10000 nM | 10 nM
Fc1cccc(C2CCCN2c2ccc3ncc(-c4csc(N5CCCCC5)n4)n3n2)c1 (centres unmarked) [Table 3-Compound 6] | – | – | – | 540 nM | 360 nM | 180 nM | 760 nM | – | > 10000 nM | 380 nM
C[C@H]1CN(c2ccc3ncc(-c4cccc(C#N)c4)n3n2)[C@H](c2ccccc2)C1(F)F [Table 3-Compound 52] | – | – | – | 22 nM | 12 nM | 4 nM | 7.7 nM | – | > 10000 nM | 6.5 nM
Fc1cccc(C2CCCN2c2ccc3ncc(-c4cncc(-n5ccnc5)n4)n3n2)c1 (centres unmarked) [Table 3-Compound 11] | – | – | – | 74 nM | 87 nM | 17 nM | 56 nM | – | > 10000 nM | 36 nM
Fc1cccc(C2CCCN2c2ccc3ncc(-c4cncc(Cl)n4)n3n2)c1 (centres unmarked) [Table 3-Compound 10] | – | – | – | 180 nM | 200 nM | 40 nM | 100 nM | – | > 10000 nM | 94 nM
N#Cc1cccc(-n2cnc3ccc(N4CCCC4c4cccc(F)c4)nc32)c1 (centres unmarked) [Table 1-Compound 1] | – | – | – | 680 nM | 210 nM | 69 nM | 150 nM | – | 16000 nM | 230 nM

The next lines start with results.

IC50 in BaF3/TrkA-NFG CTG cellular assay [1] | IC50 [3, 9] | IC50 [4] | BaF3 TRKA-NGF CTG IC 50 [1] | IC50 [5] | IC50 [6] | IC50 [3, 11] | SMILES | IC50 [2, 8] | IC50 [2, 10] | IC50 [7]
4.2 nM | 3.3 nM | 2.2 nM | – | – | – | – | O[C@@H]1CCN(c2nccc(-c3cccc(-c4cnc5ccc(N6CCC[C@@H]6c6cccc(F)c6)nn45)n3)n2)C1 [Compound 14-4, (R)-1-(4-(6-(6-((R)-2-(3-fluorophenyl)pyrrolidin-1-yl)imidazo[1,2-b]pyridazin-3-yl)pyridin-2-yl)pyrimidin-2-yl)pyrrolidin-3-ol] | 4070 nM | – | –
– | – | – | 108 nM | 44 nM | 14 nM | 49 nM | Fc1cccc(C2CCCCN2c2ccc3ncc(-c4ccc(N5CCOCC5)nc4)n3n2)c1 (centres unmarked) [Table 3-Compound 58] | – | 7650 nM | 34 nM
– | – | – | 720 nM | 298 nM | 33 nM | 129 nM | CC1(c2cccc(F)c2)CCCN1c1ccc2ncc(-c3ccc(C#N)cc3)n2n1 (centres unmarked) [Table 3-Compound 91] | – | 8410 nM | 84 nM
– | – | – | 111 nM | 86 nM | 17 nM | 41 nM | N#Cc1cccc(-c2cnc3ccc(N4CCCC4c4ccccc4)nn23)c1 (centres unmarked) [Table 3-Compound 54] | – | > 10000 nM | 94 nM
– | – | – | 20 nM | 13 nM | 1.4 nM | 10 nM | Fc1cccc(C2CCCN2c2ccc3ncc(-c4ccc5[nH]ccc5c4)n3n2)c1 (centres unmarked) [Table 3-Compound 18] | – | 7230 nM | 24 nM
– | – | – | 27 nM | 35 nM | 20 nM | 52 nM | CN1CCN(c2cnc(-c3cnc4ccc(N5CCCC5c5cccc(F)c5)nn34)cn2)CC1 (centres unmarked) [Table 3-Compound 7] | – | 5030 nM | 23 nM
– | – | – | 1730 nM | 2310 nM | 240 nM | 470 nM | Cc1ccc(C)c(C2CCCN2c2ccc3ncc(-c4cccc(C(=O)O)n4)n3n2)c1 (centres unmarked) [Table 3-Compound 1] | – | > 10000 nM | 190 nM
– | – | – | 5.3 nM | 3.5 nM | 1.7 nM | 35 nM | N#Cc1ccc(-c2cnc3ccc(N4CCCC4c4cc(F)ccc4F)nn23)cc1N1CCC(N2CCOCC2)CC1 (centres unmarked) [Table 5-Compound 13] | – | 4840 nM | 7.5 nM
